Measurements from US20240415914A1, “Water Dispersible Cannabinoid Compositions” (priority 2021, published 2024).
Read-outs that look alike come from different tables or passages of the source.

What was measured:
[1] = Stability of cannabinoid and Vitamin E components of Beverage 2 (AB Red) stored at 8° C. and 21-25° C., LCMSMS over 570 days
Protocol: The LCMSMS was calibrated for 0-50 ng/ml cannabinoids with the same resin material used in the preparation of the concentrates. At each time period, 100 μml of beverage was diluted with 10 ml of methanol and injected into the LCMSMS for analysis.

[2] = assay type: physicochemical; conditions: stored at room temperature (21-25° C.)
Protocol: At each time period, 0.05 g of powder was dissolved in 10 ml-15 of ethanol, diluted to fall within the analytical range, and injected into the LCMSMS for analysis.

CCCCCc1cc(O)c2c(c1)OC(C)(C)c1ccc(C)cc1-2 [CBN, cannabinol]
Stability of Cannabinoids in AB Red ([1]; 8° C., 0 days): 2.81 µg/mL | Stability of Cannabinoids in AB Red ([1]; 8° C., 1 days): 2.82 µg/mL | Stability of Cannabinoids in AB Red ([1]; 8° C., 2 days): 2.74 µg/mL | Stability of Cannabinoids in AB Red ([1]; 8° C., 3 days): 2.83 µg/mL | Stability of Cannabinoids in AB Red ([1]; 8° C., 5 days): 2.78 µg/mL | Stability of Cannabinoids in AB Red ([1]; 8° C., 8 days): 2.80 µg/mL | Stability of Cannabinoids in AB Red ([1]; 8° C., 9 days): 2.74 µg/mL | Stability of Cannabinoids in AB Red ([1]; 8° C., 10 days): 2.79 µg/mL | Stability of Cannabinoids in AB Red ([1]; 8° C., 11 days): 2.73 µg/mL | Stability of Cannabinoids in AB Red ([1]; 8° C., 12 days): 2.76 µg/mL | Stability of Cannabinoids in AB Red ([1]; 8° C., 15 days): 2.77 µg/mL | Stability of Cannabinoids in AB Red ([1]; 8° C., 16 days): 2.83 µg/mL | Stability of Cannabinoids in AB Red ([1]; 8° C., 17 days): 2.80 µg/mL | Stability of Cannabinoids in AB Red ([1]; 8° C., 18 days): 2.78 µg/mL | Stability of Cannabinoids in AB Red ([1]; 8° C., 19 days): 2.78 µg/mL | Stability of Cannabinoids in AB Red ([1]; 8° C., 22 days): 2.73 µg/mL | Stability of Cannabinoids in AB Red ([1]; 8° C., 23 days): 2.79 µg/mL | Stability of Cannabinoids in AB Red ([1]; 8° C., 24 days): 2.76 µg/mL | Stability of Cannabinoids in AB Red ([1]; 8° C., 25 days): 2.83 µg/mL | Stability of Cannabinoids in AB Red ([1]; 8° C., 26 days): 2.79 µg/mL | Stability of Cannabinoids in AB Red ([1]; 8° C., 29 days): 2.77 µg/mL | Stability of Cannabinoids in AB Red ([1]; 8° C., 30 days): 2.77 µg/mL | Stability of Cannabinoids in AB Red ([1]; 8° C., 60 days): 2.73 µg/mL | Stability of Cannabinoids in AB Red ([1]; 8° C., 90 days): 2.80 µg/mL | Stability of Cannabinoids in AB Red ([1]; 8° C., 120 days): 2.69 µg/mL | Stability of Cannabinoids in AB Red ([1]; 8° C., 150 days): 2.69 µg/mL | Stability of Cannabinoids in AB Red ([1]; 8° C., 180 days): 2.74 µg/mL | Stability of Cannabinoids in AB Red ([1]; 8° C., 210 days): 2.69 µg/mL | Stability of Cannabinoids in AB Red ([1]; 8° C., 240 days): 2.74 µg/mL | Stability of Cannabinoids in AB Red ([1]; 8° C., 270 days): 2.76 µg/mL | Stability of Cannabinoids in AB Red ([1]; 8° C., 300 days): 2.75 µg/mL | Stability of Cannabinoids in AB Red ([1]; 8° C., 330 days): 2.71 µg/mL | Stability of Cannabinoids in AB Red ([1]; 8° C., 390 days): 2.72 µg/mL | Stability of Cannabinoids in AB Red ([1]; 8° C., 420 days): 2.69 µg/mL | Stability of Cannabinoids in AB Red ([1]; 8° C., 450 days): 2.71 µg/mL | Stability of Cannabinoids in AB Red ([1]; 8° C., 480 days): 2.66 µg/mL | Stability of Cannabinoids in AB Red ([1]; 8° C., 510 days): 2.62 µg/mL | Stability of Cannabinoids in AB Red ([1]; 8° C., 540 days): 2.60 µg/mL | Stability of Cannabinoids in AB Red ([1]; 8° C., 570 days): 2.58 µg/mL | Stability of Cannabinoids in AB Red ([1]; 21-25° C., 0 days): 2.81 µg/mL | Stability of Cannabinoids in AB Red ([1]; 21-25° C., 1 days): 2.73 µg/mL | Stability of Cannabinoids in AB Red ([1]; 21-25° C., 2 days): 2.83 µg/mL | Stability of Cannabinoids in AB Red ([1]; 21-25° C., 3 days): 2.78 µg/mL | Stability of Cannabinoids in AB Red ([1]; 21-25° C., 5 days): 2.71 µg/mL | Stability of Cannabinoids in AB Red ([1]; 21-25° C., 8 days): 2.74 µg/mL | Stability of Cannabinoids in AB Red ([1]; 21-25° C., 9 days): 2.72 µg/mL | Stability of Cannabinoids in AB Red ([1]; 21-25° C., 10 days): 2.73 µg/mL | Stability of Cannabinoids in AB Red ([1]; 21-25° C., 11 days): 2.83 µg/mL | Stability of Cannabinoids in AB Red ([1]; 21-25° C., 12 days): 2.70 µg/mL | Stability of Cannabinoids in AB Red ([1]; 21-25° C., 15 days): 2.77 µg/mL | Stability of Cannabinoids in AB Red ([1]; 21-25° C., 16 days): 2.81 µg/mL | Stability of Cannabinoids in AB Red ([1]; 21-25° C., 17 days): 2.74 µg/mL | Stability of Cannabinoids in AB Red ([1]; 21-25° C., 18 days): 2.80 µg/mL | Stability of Cannabinoids in AB Red ([1]; 21-25° C., 19 days): 2.70 µg/mL | Stability of Cannabinoids in AB Red ([1]; 21-25° C., 22 days): 2.70 µg/mL | Stability of Cannabinoids in AB Red ([1]; 21-25° C., 23 days): 2.82 µg/mL | Stability of Cannabinoids in AB Red ([1]; 21-25° C., 24 days): 2.78 µg/mL | Stability of Cannabinoids in AB Red ([1]; 21-25° C., 25 days): 2.84 µg/mL | Stability of Cannabinoids in AB Red ([1]; 21-25° C., 26 days): 2.70 µg/mL | Stability of Cannabinoids in AB Red ([1]; 21-25° C., 29 days): 2.78 µg/mL | Stability of Cannabinoids in AB Red ([1]; 21-25° C., 30 days): 2.77 µg/mL | Stability of Cannabinoids in AB Red ([1]; 21-25° C., 60 days): 2.78 µg/mL | Stability of Cannabinoids in AB Red ([1]; 21-25° C., 90 days): 2.75 µg/mL | Stability of Cannabinoids in AB Red ([1]; 21-25° C., 120 days): 2.77 µg/mL | Stability of Cannabinoids in AB Red ([1]; 21-25° C., 150 days): 2.75 µg/mL | Stability of Cannabinoids in AB Red ([1]; 21-25° C., 180 days): 2.70 µg/mL | Stability of Cannabinoids in AB Red ([1]; 21-25° C., 210 days): 2.70 µg/mL | Stability of Cannabinoids in AB Red ([1]; 21-25° C., 240 days): 2.73 µg/mL | Stability of Cannabinoids in AB Red ([1]; 21-25° C., 270 days): 2.73 µg/mL | Stability of Cannabinoids in AB Red ([1]; 21-25° C., 300 days): 2.70 µg/mL | Stability of Cannabinoids in AB Red ([1]; 21-25° C., 330 days): 2.75 µg/mL | Stability of Cannabinoids in AB Red ([1]; 21-25° C., 390 days): 2.65 µg/mL | Stability of Cannabinoids in AB Red ([1]; 21-25° C., 420 days): 2.64 µg/mL | Stability of Cannabinoids in AB Red ([1]; 21-25° C., 450 days): 2.68 µg/mL | Stability of Cannabinoids in AB Red ([1]; 21-25° C., 480 days): 2.58 µg/mL | Stability of Cannabinoids in AB Red ([1]; 21-25° C., 510 days): 2.66 µg/mL | Stability of Cannabinoids in AB Red ([1]; 21-25° C., 540 days): 2.65 µg/mL | Stability of Cannabinoids in AB Red ([1]; 21-25° C., 570 days): 2.58 µg/mL | Stability in Powder Concentrate (content by LCMSMS) ([2]; day 0): 0.480 mg/g powder | Stability in Powder Concentrate (content by LCMSMS) ([2]; day 1): 0.471 mg/g powder | Stability in Powder Concentrate (content by LCMSMS) ([2]; day 2): 0.488 mg/g powder | Stability in Powder Concentrate (content by LCMSMS) ([2]; day 3): 0.474 mg/g powder | Stability in Powder Concentrate (content by LCMSMS) ([2]; day 5): 0.491 mg/g powder | Stability in Powder Concentrate (content by LCMSMS) ([2]; day 8): 0.469 mg/g powder | Stability in Powder Concentrate (content by LCMSMS) ([2]; day 9): 0.466 mg/g powder | Stability in Powder Concentrate (content by LCMSMS) ([2]; day 10): 0.499 mg/g powder | Stability in Powder Concentrate (content by LCMSMS) ([2]; day 11): 0.494 mg/g powder | Stability in Powder Concentrate (content by LCMSMS) ([2]; day 12): 0.496 mg/g powder | Stability in Powder Concentrate (content by LCMSMS) ([2]; day 15): 0.472 mg/g powder | Stability in Powder Concentrate (content by LCMSMS) ([2]; day 16): 0.483 mg/g powder | Stability in Powder Concentrate (content by LCMSMS) ([2]; day 17): 0.465 mg/g powder | Stability in Powder Concentrate (content by LCMSMS) ([2]; day 18): 0.470 mg/g powder | Stability in Powder Concentrate (content by LCMSMS) ([2]; day 19): 0.490 mg/g powder | Stability in Powder Concentrate (content by LCMSMS) ([2]; day 22): 0.486 mg/g powder | Stability in Powder Concentrate (content by LCMSMS) ([2]; day 23): 0.469 mg/g powder | Stability in Powder Concentrate (content by LCMSMS) ([2]; day 24): 0.465 mg/g powder | Stability in Powder Concentrate (content by LCMSMS) ([2]; day 25): 0.486 mg/g powder | Stability in Powder Concentrate (content by LCMSMS) ([2]; day 26): 0.486 mg/g powder | Stability in Powder Concentrate (content by LCMSMS) ([2]; day 29): 0.484 mg/g powder | Stability in Powder Concentrate (content by LCMSMS) ([2]; day 30): 0.476 mg/g powder | Stability in Powder Concentrate (content by LCMSMS) ([2]; day 60): 0.489 mg/g powder | Stability in Powder Concentrate (content by LCMSMS) ([2]; day 90): 0.483 mg/g powder | Stability in Powder Concentrate (content by LCMSMS) ([2]; day 120): 0.498 mg/g powder | Stability in Powder Concentrate (content by LCMSMS) ([2]; day 150): 0.500 mg/g powder | Stability in Powder Concentrate (content by LCMSMS) ([2]; day 180): 0.464 mg/g powder | Stability in Powder Concentrate (content by LCMSMS) ([2]; day 210): 0.501 mg/g powder | Stability in Powder Concentrate (content by LCMSMS) ([2]; day 240): 0.467 mg/g powder | Stability in Powder Concentrate (content by LCMSMS) ([2]; day 270): 0.464 mg/g powder | Stability in Powder Concentrate (content by LCMSMS) ([2]; day 300): 0.469 mg/g powder | Stability in Powder Concentrate (content by LCMSMS) ([2]; day 330): 0.502 mg/g powder | Stability in Powder Concentrate (content by LCMSMS) ([2]; day 360): 0.499 mg/g powder | Stability in Powder Concentrate (content by LCMSMS) ([2]; day 390): 0.479 mg/g powder | Stability in Powder Concentrate (content by LCMSMS) ([2]; day 420): 0.481 mg/g powder | Stability in Powder Concentrate (content by LCMSMS) ([2]; day 450): 0.480 mg/g powder | Stability in Powder Concentrate (content by LCMSMS) ([2]; day 480): 0.485 mg/g powder | Stability in Powder Concentrate (content by LCMSMS) ([2]; day 510): 0.499 mg/g powder | Stability in Powder Concentrate (content by LCMSMS) ([2]; day 540): 0.492 mg/g powder | Stability in Powder Concentrate (content by LCMSMS) ([2]; day 570): 0.471 mg/g powder
